# The NIST ThermoML archive (doi:10.1016/j.fluid.2009.08.017)
# Numbers after ± are expanded uncertainties.
# Assay: activity coefficient (dimensionless); of the first substance listed, at infinite dilution; xn = mol fraction of the nth substance listed
# Conditions: 101 kPa, Liquid, Chromatography, x1 = 0
SMILES,activity coefficient (318.15 K),activity coefficient (328.15 K),activity coefficient (338.15 K),activity coefficient (348.15 K),activity coefficient (358.15 K),activity coefficient (368.15 K),activity coefficient (298.15 K),activity coefficient (308.15 K)
"Cc1ccccc1C [1,2-dimethylbenzene] + CCCCCCOCn1cc[n+](C)c1.O=S(=O)([N-]S(=O)(=O)C(F)(F)F)C(F)(F)F",1.33 ± 0.086,1.34 ± 0.087,1.35 ± 0.087,1.35 ± 0.088,1.36 ± 0.088,1.36 ± 0.089,,
"Cc1ccccc1C [1,2-dimethylbenzene] + CCCCCCOCn1cc[n+](COCCCCCC)c1.O=S(=O)([N-]S(=O)(=O)C(F)(F)F)C(F)(F)F",0.89 ± 0.057,0.891 ± 0.057,0.892 ± 0.057,0.894 ± 0.057,0.895 ± 0.057,0.896 ± 0.057,,
"Cc1cccc(C)c1 [1,3-dimethylbenzene] + CCCCCCOCn1cc[n+](C)c1.O=S(=O)([N-]S(=O)(=O)C(F)(F)F)C(F)(F)F",1.45 ± 0.095,1.46 ± 0.096,1.47 ± 0.096,1.48 ± 0.097,1.48 ± 0.098,1.49 ± 0.098,,
"Cc1cccc(C)c1 [1,3-dimethylbenzene] + CCCCCCOCn1cc[n+](COCCCCCC)c1.O=S(=O)([N-]S(=O)(=O)C(F)(F)F)C(F)(F)F",0.944 ± 0.06,0.946 ± 0.06,0.948 ± 0.06,0.951 ± 0.06,0.953 ± 0.06,0.955 ± 0.06,,
"Cc1ccc(C)cc1 [1,4-dimethylbenzene] + CCCCCCOCn1cc[n+](C)c1.O=S(=O)([N-]S(=O)(=O)C(F)(F)F)C(F)(F)F",1.46 ± 0.096,1.47 ± 0.097,1.48 ± 0.097,1.49 ± 0.098,1.5 ± 0.098,1.5 ± 0.099,,
"Cc1ccc(C)cc1 [1,4-dimethylbenzene] + CCCCCCOCn1cc[n+](COCCCCCC)c1.O=S(=O)([N-]S(=O)(=O)C(F)(F)F)C(F)(F)F",0.949 ± 0.06,0.952 ± 0.06,0.955 ± 0.06,0.958 ± 0.06,0.96 ± 0.06,0.962 ± 0.06,,
C=CCCCCC [1-heptene] + CCCCCCOCn1cc[n+](C)c1.O=S(=O)([N-]S(=O)(=O)C(F)(F)F)C(F)(F)F,5.79 ± 0.39,5.61 ± 0.38,5.44 ± 0.37,5.3 ± 0.36,5.18 ± 0.35,5.05 ± 0.34,6.16 ± 0.42,5.96 ± 0.41
C=CCCCCC [1-heptene] + CCCCCCOCn1cc[n+](COCCCCCC)c1.O=S(=O)([N-]S(=O)(=O)C(F)(F)F)C(F)(F)F,2.59 ± 0.18,2.54 ± 0.17,2.49 ± 0.17,2.45 ± 0.17,2.41 ± 0.16,2.37 ± 0.16,2.7 ± 0.18,2.64 ± 0.18
C#CCCCCC [1-heptyne] + CCCCCCOCn1cc[n+](C)c1.O=S(=O)([N-]S(=O)(=O)C(F)(F)F)C(F)(F)F,2.45 ± 0.17,2.46 ± 0.17,2.47 ± 0.17,2.48 ± 0.17,2.48 ± 0.17,2.49 ± 0.17,2.44 ± 0.17,2.45 ± 0.17
C#CCCCCC [1-heptyne] + CCCCCCOCn1cc[n+](COCCCCCC)c1.O=S(=O)([N-]S(=O)(=O)C(F)(F)F)C(F)(F)F,1.39 ± 0.09,1.39 ± 0.091,1.4 ± 0.091,1.4 ± 0.092,1.41 ± 0.092,1.42 ± 0.093,1.37 ± 0.089,1.38 ± 0.09
C#CCCCC [1-hexyne] + CCCCCCOCn1cc[n+](C)c1.O=S(=O)([N-]S(=O)(=O)C(F)(F)F)C(F)(F)F,1.95 ± 0.13,1.96 ± 0.13,1.97 ± 0.13,1.98 ± 0.13,1.98 ± 0.13,1.99 ± 0.14,1.93 ± 0.13,1.94 ± 0.13
C#CCCCC [1-hexyne] + CCCCCCOCn1cc[n+](COCCCCCC)c1.O=S(=O)([N-]S(=O)(=O)C(F)(F)F)C(F)(F)F,1.17 ± 0.075,1.18 ± 0.075,1.18 ± 0.076,1.19 ± 0.076,1.19 ± 0.076,1.19 ± 0.076,1.16 ± 0.074,1.17 ± 0.075
C#CCCCCCC [1-octyne] + CCCCCCOCn1cc[n+](C)c1.O=S(=O)([N-]S(=O)(=O)C(F)(F)F)C(F)(F)F,3.13 ± 0.21,3.13 ± 0.21,3.12 ± 0.21,3.11 ± 0.21,3.11 ± 0.21,3.1 ± 0.21,3.15 ± 0.21,3.14 ± 0.21
C#CCCCCCC [1-octyne] + CCCCCCOCn1cc[n+](COCCCCCC)c1.O=S(=O)([N-]S(=O)(=O)C(F)(F)F)C(F)(F)F,1.66 ± 0.11,1.66 ± 0.11,1.67 ± 0.11,1.67 ± 0.11,1.67 ± 0.11,1.67 ± 0.11,1.65 ± 0.11,1.66 ± 0.11
C=CCCC [1-pentene] + CCCCCCOCn1cc[n+](C)c1.O=S(=O)([N-]S(=O)(=O)C(F)(F)F)C(F)(F)F,3.77 ± 0.26,3.69 ± 0.25,3.61 ± 0.25,3.53 ± 0.24,3.47 ± 0.24,3.41 ± 0.23,3.96 ± 0.27,3.86 ± 0.26
C=CCCC [1-pentene] + CCCCCCOCn1cc[n+](COCCCCCC)c1.O=S(=O)([N-]S(=O)(=O)C(F)(F)F)C(F)(F)F,1.83 ± 0.12,1.8 ± 0.12,1.77 ± 0.12,1.75 ± 0.12,1.72 ± 0.12,1.7 ± 0.11,1.9 ± 0.13,1.87 ± 0.13
C#CCCC [1-pentyne] + CCCCCCOCn1cc[n+](C)c1.O=S(=O)([N-]S(=O)(=O)C(F)(F)F)C(F)(F)F,1.57 ± 0.1,1.58 ± 0.1,1.59 ± 0.11,1.59 ± 0.11,1.6 ± 0.11,1.61 ± 0.11,1.54 ± 0.1,1.56 ± 0.1
C#CCCC [1-pentyne] + CCCCCCOCn1cc[n+](COCCCCCC)c1.O=S(=O)([N-]S(=O)(=O)C(F)(F)F)C(F)(F)F,1 ± 0.063,1.01 ± 0.063,1.01 ± 0.063,1.02 ± 0.064,1.02 ± 0.064,1.02 ± 0.064,0.992 ± 0.062,0.997 ± 0.062
COC(C)(C)C [2-methoxy-2-methylpropane] + CCCCCCOCn1cc[n+](C)c1.O=S(=O)([N-]S(=O)(=O)C(F)(F)F)C(F)(F)F,1.32 ± 0.09,1.36 ± 0.09,1.39 ± 0.09,1.41 ± 0.09,1.44 ± 0.09,1.46 ± 0.1,1.26 ± 0.08,1.29 ± 0.08
COC(C)(C)C [2-methoxy-2-methylpropane] + CCCCCCOCn1cc[n+](COCCCCCC)c1.O=S(=O)([N-]S(=O)(=O)C(F)(F)F)C(F)(F)F,0.801 ± 0.052,0.821 ± 0.053,0.841 ± 0.054,0.859 ± 0.055,0.877 ± 0.056,0.896 ± 0.057,0.759 ± 0.05,0.78 ± 0.051
CC(C)=O [acetone] + CCCCCCOCn1cc[n+](C)c1.O=S(=O)([N-]S(=O)(=O)C(F)(F)F)C(F)(F)F,0.315 ± 0.031,0.322 ± 0.031,0.328 ± 0.032,0.336 ± 0.032,0.342 ± 0.032,0.348 ± 0.032,0.3 ± 0.031,0.308 ± 0.031
CC(C)=O [acetone] + CCCCCCOCn1cc[n+](COCCCCCC)c1.O=S(=O)([N-]S(=O)(=O)C(F)(F)F)C(F)(F)F,0.272 ± 0.03,0.277 ± 0.03,0.281 ± 0.03,0.286 ± 0.031,0.29 ± 0.031,0.294 ± 0.031,0.262 ± 0.03,0.267 ± 0.03
c1ccccc1 [benzene] + CCCCCCOCn1cc[n+](C)c1.O=S(=O)([N-]S(=O)(=O)C(F)(F)F)C(F)(F)F,0.812 ± 0.053,0.816 ± 0.053,0.82 ± 0.053,0.824 ± 0.053,0.827 ± 0.053,0.832 ± 0.054,0.802 ± 0.052,0.807 ± 0.052
c1ccccc1 [benzene] + CCCCCCOCn1cc[n+](COCCCCCC)c1.O=S(=O)([N-]S(=O)(=O)C(F)(F)F)C(F)(F)F,0.607 ± 0.042,0.607 ± 0.042,0.606 ± 0.042,0.606 ± 0.042,0.606 ± 0.042,0.606 ± 0.042,0.608 ± 0.043,0.608 ± 0.043
CCCCO [butan-1-ol] + CCCCCCOCn1cc[n+](C)c1.O=S(=O)([N-]S(=O)(=O)C(F)(F)F)C(F)(F)F,1.74 ± 0.12,1.58 ± 0.1,1.45 ± 0.1,1.34 ± 0.09,1.24 ± 0.08,1.15 ± 0.07,,
CCCCO [butan-1-ol] + CCCCCCOCn1cc[n+](COCCCCCC)c1.O=S(=O)([N-]S(=O)(=O)C(F)(F)F)C(F)(F)F,1.19 ± 0.08,1.1 ± 0.07,1.01 ± 0.064,0.943 ± 0.059,0.877 ± 0.056,0.82 ± 0.053,,
